Assay results: patent US20150209364A1, “METHOD FOR TREATING EPIDERMOID CARCINOMA” (Johnpro Biotech Inc., priority 2011, published 2015)

System: erlotinib-resistant H1975 cells
Test: cells
Type: cell-based
Conditions: Homo sapiens, NCI-H1975, 72 h, read-out: IC50 (cell viability)
Method: The cells were plated at 5×10^4/ml in 100 μL of culture medium in a 96-well microtiter plate, followed by incubation with drugs. Cell viability after the treatment was determined using 3-(4,5-dimethylthiazol-2-yl)-5(3-carboxymethoxy-phenyl)-2-(4-sulfophenyl)-2H-tetrazolium (MTS) assay (Promega, Madison, Wis.) per the manufacturer's instruction. Absorbance was measured at 490 nm for MTS assay with an enzyme-linked immunosorbent assay plate reader from MTX Lab Systems, Inc. (Vienna, Va.). […] Each experiment was performed in triplicate, and the results were expressed as mean±SD.

IC50: 75 µM
Compound: CCN(CC)CCCC(C)Nc1ccnc2cc(Cl)ccc12 (stereo not shown) [chloroquine]
